The text below walks through data of ChEMBL document CHEMBL2021825, “Dimerization of β-tryptase inhibitors, does it work for both basic and neutral P1 groups?” (Bioorg Med Chem Lett, 2012).

Experiment [1] in a line: Inhibition of human recombinant beta-tryptase using chromogenic substrate S-2366.
Another experiment is filed under the species Homo sapiens. Put plainly: Inhibition of human recombinant beta-tryptase using chromogenic substrate S-2366 at 30 uM.
In experiment [2] the test system is Tryptase beta-1 (Homo sapiens), Q15661 [A190S]. Put plainly: Inhibition of human recombinant beta-tryptase A190S mutant using chromogenic substrate S-2366.
Sequence of Tryptase beta-1 (Homo sapiens), Q15661 [A190S] (Q15661 whole entry A190S): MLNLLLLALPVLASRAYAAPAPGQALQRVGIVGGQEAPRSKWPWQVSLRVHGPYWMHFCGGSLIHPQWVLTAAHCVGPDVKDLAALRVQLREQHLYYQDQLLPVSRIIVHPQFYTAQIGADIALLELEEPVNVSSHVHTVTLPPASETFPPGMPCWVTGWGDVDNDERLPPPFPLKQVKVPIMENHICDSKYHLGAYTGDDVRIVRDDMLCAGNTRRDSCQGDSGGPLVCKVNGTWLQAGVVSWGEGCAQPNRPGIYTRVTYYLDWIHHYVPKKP

The source made the active and inactive calls. The calls are words filed in the database; no cut-off is given here.

A word on the Ki: it is the dissociation constant of the complex between target and ligand, obtained from inhibition or displacement. Consider `N=C(N)c1cccc(C2CCN(C(=O)c3cccc(CCCCc4cccc(C(=O)N5CCC(c6cccc(C(=N)N)c6)CC5)c4)c3)CC2)c1`, for which the Ki in experiment [1] was 0.3 nM.
Still for that read-out and setting: the figure for `NCc1cccc(C2CCN(C(=O)c3cccc(-c4ccc5c(c4)NC(c4c[nH]c6cc(-c7cccc(C(=O)N8CCC(c9cccc(CN)c9)CC8)c7)ccc46)C5)c3)CC2)c1` (stereo not drawn) is 3 nM; for `NCc1cccc(C2CCN(C(=O)c3ccccc3)CC2)c1` it is 1900 nM.
For the compound `O=C1CN(Cc2cc(-c3ccc(Cl)s3)on2)CCN1CCCCCCCCCCN1CCN(Cc2cc(-c3ccc(Cl)s3)on2)CC1=O`, in the experiment listed under Homo sapiens, the inhibition result was “inactive”.
Consider `Nc1ncnc2cc(CN3CCN(Cc4cc(-c5ccc(Cl)s5)on4)CC3=O)ccc12`, for which the inhibition entry in experiment [2] is “inactive”.
In the case of `NCc1cccc(C2CCN(C(=O)c3cccc(CCCCc4cccc(C(=O)N5CCC(c6cccc(CN)c6)CC5)c4)c3)CC2)c1`, the Ki in experiment [1] came out at 2 nM.
On to `N=C(N)c1cccc(C2CCN(C(=O)c3cccc(C#CC#Cc4cccc(C(=O)N5CCC(c6cccc(C(=N)N)c6)CC5)c4)c3)CC2)c1`, for which, in experiment [1], the Ki stood at 0.29 nM.
The same measure, in the same setting: to `NCc1cccc(C2CCN(C(=O)c3cccc(C#CC#Cc4cccc(C(=O)N5CCC(c6cccc(CN)c6)CC5)c4)c3)CC2)c1` belongs 0.34 nM.
